Results on 31 compounds are retold here after patent US9695182B2, “Chemical compounds (derivatives) and their application for the treatment of oncological diseases” (LIMITED LIABILITY COMPANY “NATIONAL PHARMACEUTICAL …, priority 2013, dated 2017).

The subject of data set [1] is NCI-H3122 cells. Kind of data set: Efficacy in animal model of non-small cell lung cancer (NCI-H3122 tumors). The data set is classed as in vivo, male athymic mice. Conditions: 30 mg/kg daily by gavage, 20 days; ratio of average tumor volume treatment/control. How it is done:
The male athymic mice were used for the studies. NCI-H3122 cells in an amount of 1×10^7 were administered in the form of 0.2 ml Matrigel solution (BD Pharmingen) in the left leg of the mouse under ketamine-xylazine anesthesia. One week after cells injection mice were divided into the treatment and control groups and randomized by tumor size. Tumor volume was calculated according to the formula V=0.5×W^2×L. The control animals received daily 0.3 ml of 0.5% of methylcellulose solution, animals of the treatment group −0.3 ml of 0.5% of methylcellulose suspension containing the drug in a test dose. The solutions were administered by gavage. The treatment continued for 20 days. The ratio of the average volume for the treatment/control groups (% T/C) was calculated after treatment to determine the effectiveness of inhibition of tumor growth. The analysis of the statistical significance using Dunnett's test was performed for the data collection. Effectiveness of the test compounds in a dose of 30 mg/kg is introduced below.

In data set [2] the test system is Karpas-299 cells. Kind of data set: Efficacy in animal model of anaplastic large cell lymphoma (Karpas-299 tumors). The data set is classed as in vivo, SCID-mice. Conditions: 30 mg/kg daily by gavage, 23 days; ratio of average tumor volume treatment/control. How it is done: SCID-mice with tumors that have developed as a result of the introduction of Karpas-299 cells were used for the studies. When tumor size reached 220 mm^3 animals were divided into the treatment and control groups and were randomized by tumor size. The control animals received daily 0.3 ml of 0.5% of methylcellulose solution, animals of the treatment group—0.3 ml of 0.5% of methylcellulose suspension containing the drug in a test dose. The solutions were administered by gavage. The treatment continued for 23 days. The ratio of the average volume for the treatment/control groups (% T/C) was calculated after treatment to determine the effectiveness of inhibition of tumor growth. The analysis of the statistical significance using Dunnett's test was performed for the data collection. Effectiveness of the test compounds in a dose of 30 mg/kg is introduced below.

For data set [3], the system named is Karpas-299. The experiment in a line: Antiproliferative activity on KARPAS-299 cells (MTS). Type of data set: cell-based. To be noted: Homo sapiens, concentration at which the number of living cells is reduced 2-fold compared with absence of compound. How it is done:
Furthermore, antiproliferative activity of the compounds of this invention can be studied on cell lines KARPAS-299 of anaplastic large cell lymphoma according to the following procedure. KARPAS-299 cells cultured in RPMI 1640 growth medium, are transferred in duplicate to 96-well culture plate (10,000 cells per well) and a solution of the analytes in a growth medium is added to them at various concentrations (final volume in each well—100 μl). The solids were dissolved in DMSO and then the solution was diluted with DMSO to the desired concentration, mixed with an equal volume of growth medium and transferred to wells with the cells. The final concentration of compounds ranged from 0.5 nM to 10 μM. DMSO was used as a control (in the same amount as that of adding solutions of substances). After the cells incubation with the compounds for 72 hours, the number of viable cells was determined. For this purpose, old medium was removed, 100 μl of fresh medium and 40 μl of MTS solution, containing 5 mg/ml PBS were added to each well. The plate was incubated for 2 hours at 37° C., then 100 μl of DMSO was added to each well and mixed for 1 minute. Then, the optical density was determined at 490 nm and percentage of inhibition of proliferation was calculated in comparison with the control (containing no analytes).

For data set [4] the following is noted: in vivo; cited from earlier work.

As to `Clc1ccc(Cl)c(CN2CCNc3nnc(-c4nnc(C5CCNCC5)o4)cc32)c1` [drawing 241], the “% T/C” value in data set [1] was less than 40%. For the compound `Clc1ccc(Cl)c(CN2CCNc3nnc(-c4nnc(C5CCNCC5)[nH]4)cc32)c1` [drawing 242], the “% T/C” value in data set [2] was less than 40%. In data set [3], `C[C@H](c1c(Cl)ccc(F)c1Cl)N1CCNc2nnc(Nc3cccc(N4CCOCC4)c3)cc21` returned a 50% inhibitory concentration (IC50) of less than 100 nM. Take `CC(c1c(Cl)ccc(F)c1Cl)N1CCNc2nnc(C(=O)Nc3ccc(C(=O)N4CCCC4)cc3)cc21` (stereo not shown) [drawing 228]: in data set [3], the IC50 is less than 100 nM. For `C[C@@H](Oc1cc(-c2cnn(C3CCNCC3)c2)cnc1N)c1c(Cl)ccc(F)c1Cl` [Crizotinib], the “penetration through the blood-brain barrier” value in data set [4] was “does not penetrate through the blood-brain barrier”. Compound `Clc1ccc(Cl)c(CN2CCNc3nnc(-c4nnc(C5CCNCC5)[nH]4)cc32)c1` [drawing 218] displayed a half-inhibitory concentration (IC50) in data set [3] of less than 100 nM.

Compound `Clc1ccc(Cl)c(CN2CCNc3nnc(CNC4CCNCC4)cc32)c1` showed an IC50 in data set [3] of less than 1000 nM. As to `Fc1ccc(Cl)c(CN2CCNc3nnc(-c4nnc(C5CCNCC5)[nH]4)cc32)c1Cl` [drawing 240], in data set [1], the “% T/C” value is on record as less than 40%. `O=C(Nc1ccc(N2CCOCC2)cc1)c1cc2c(nn1)NCCN2Cc1cc(Cl)ccc1Cl` [drawing 232]: the IC50 in data set [3] was less than 100 nM. The same measure, in the same setting: under `O=C(c1cc2c(nn1)NCCN2Cc1c(Cl)ccc(F)c1Cl)N1CCN(c2ccccc2)CC1` stands less than 100 nM.

Turning to `CC(c1c(Cl)ccc(F)c1Cl)N1CCNc2nnc(C(=O)Nc3ccc(C(=O)N4CCCC4)cc3)cc21` (stereo not shown) [drawing 237], the “% T/C” value in data set [1] is reported as less than 40%.

Consider `CN1CCC(c2nnc(-c3cc4c(nn3)NCCN4Cc3c(Cl)ccc(F)c3Cl)o2)CC1`, for which the IC50 in data set [3] is less than 100 nM.

In data set [3], `CN1CCN(C(=O)c2ccc(NC(=O)c3cc4c(nn3)NCCN4Cc3cc(Cl)ccc3Cl)cc2)CC1` [drawing 231] yielded a half-inhibitory concentration (IC50) of less than 100 nM. In the case of `CN1CCN(C(=O)c2ccc(NC(=O)c3cc4c(nn3)NCCN4Cc3cc(Cl)ccc3Cl)cc2)CC1` [drawing 238], the “% T/C” value in data set [1] is given as less than 40%. `COc1cc(N2CCC(N(C)C)CC2)ccc1Nc1cc2c(nn1)NCCN2Cc1c(Cl)ccc(F)c1Cl` returned an IC50 in data set [3] of less than 100 nM. As to `Fc1ccc(Cl)c(CN2CCNc3nnc(-c4nnc(C5CCNCC5)[nH]4)cc32)c1Cl` [drawing 233], the IC50 in data set [3] was less than 100 nM. As for `O=C(Nc1ccc(N2CCOCC2)cc1)c1cc2c(nn1)NCCN2Cc1cc(Cl)ccc1Cl` [drawing 245], the “% T/C” value in data set [2] is reported as less than 40%. On the same count and under the same terms, in the case of `CN1CCN(C(=O)c2ccc(NC(=O)c3cc4c(nn3)NCCN4Cc3cc(Cl)ccc3Cl)cc2)CC1` [drawing 244] it was less than 40%.

The compound `Clc1ccc(Cl)c(CN2CCNc3nnc(-c4nnc(C5CCNCC5)o4)cc32)c1` [drawing 234] showed an IC50 in data set [3] of less than 100 nM. Still for that read-out and setting: under `C[C@H](c1cc(Cl)ccc1C(F)(F)F)N1CCNc2nnc(Nc3cccc(N4CCOCC4)c3)cc21` stands less than 100 nM; under `C[C@H](c1c(Cl)ccc(F)c1Cl)N1CCNc2nnc(-c3nc(C4CCNCC4)no3)cc21`, less than 100 nM; under `Fc1ccc(Cl)c(CN2CCNc3nnc(-c4nnc(C(F)(F)F)[nH]4)cc32)c1Cl`, less than 1000 nM.

For `CC(c1c(Cl)ccc(F)c1Cl)N1CCNc2nnc(C(=O)Nc3ccc(C(=O)N4CCCC4)cc3)cc21` (stereo not shown) [drawing 243], in data set [2], the “% T/C” value was less than 40%.

Turning to `C[C@H](c1c(Cl)ccc(F)c1Cl)N1CCNc2nnc(-c3ccc(N4CCCC4)nc3)cc21`, the concentration for half-maximal inhibition (IC50) in data set [3] was less than 100 nM.

On to `O=C(Nc1ccc(N2CCOCC2)cc1)c1cc2c(nn1)NCCN2Cc1cc(Cl)ccc1Cl` [drawing 239], for which the “% T/C” value in data set [1] was less than 40%. For the compound `Clc1ccc(Cl)c(CN2CCNc3nnc(-c4nnc(C5CCNCC5)o4)cc32)c1` [drawing 247], the “% T/C” value in data set [2] is less than 40%. `CC(C)c1noc(-c2cc3c(nn2)NCCN3Cc2c(Cl)ccc(F)c2Cl)n1` registered a concentration for half-maximal inhibition (IC50) in data set [3] of less than 1000 nM. As to `Clc1ccc(Cl)c(CN2CCNc3nnc(-c4nnc(C5CCNCC5)[nH]4)cc32)c1` [drawing 236], in data set [1], the “% T/C” value is recorded as less than 40%.

The compound `Fc1ccc(Cl)c(CN2CCNc3nnc(-c4ccc(N5CCOCC5)cc4)cc32)c1Cl` showed a half-inhibitory concentration (IC50) in data set [3] of less than 100 nM. Still for that read-out and setting: in the case of `O=C(NCCc1ccccc1)c1cc2c(nn1)NCCN2Cc1c(Cl)ccc(F)c1Cl` it was less than 1000 nM. Take `Fc1ccc(Cl)c(CN2CCNc3nnc(-c4nnc(C5CCNCC5)[nH]4)cc32)c1Cl` [drawing 246]: the “% T/C” value in data set [2] is less than 40%.

For orientation: IC50 means the concentration that gives 50% inhibition. Read a low IC50 as greater potency in that assay.
